Data set [1] can be described thus: Solubility in DMSO or chloroform. The data set is classed as physicochemical. As for the experimental part:
Compound 5. FABMS 613.2 (M+H)^+. Insoluble in either DMSO or chloroform.
Subsequently ^1H NMR spectra for the five active compounds were performed. The ^1H NMR spectrum for compound 5 is not determined, because it is insoluble in either DMSO or chloroform. The ^1H NMR spectra for compounds 6, 7, 8 and 11 are consistent with their chemical structures.

For the next data set, the target named is T1, GST-fused Bcl-2 protein (Homo sapiens, UniProt P10415).
T1 construct: purchased Santa Cruz Biotechnology (Santa Cruz, Calif.)
In words: Bcl-2 fluorescence polarization (FP) competitive binding assay with Flu-Bak-BH3 peptide. Conditions: read-out: IC50, inhibition of Bak BH3 peptide binding to Bcl-2, 290 nM tracer, 270 nM Bcl-2 protein. Background: Polarisation of emitted light reports the rotation of a fluorescent probe.

For the next data set, the system named is HL-60 cells. Briefly: Cell viability, trypan blue exclusion, HL-60. The data set is classed as cell-based. Conditions: Homo sapiens; HL-60, trypan blue exclusion, 24 hours; read-out: IC50, inhibition of cell viability. As to the method:
FIG. 3 illustrated the effects of Compound 6 on cell viability. Cells are plated in 24-well plates, incubated with the compound at appropriate concentrations for […]. Cell viability is determined by trypan blue exclusion with hemocytometer. Percent of viable cells, as compared with untreated cells, is plotted against drug concentration.
First, in some embodiments, the trypan blue exclusion method was used to determine the effect of an inhibitor on cell viability in which cells were treated with the inhibitor for 24 hours. Second, in some other embodiments, the MTT assay was used to determine the activity of an inhibitor on cell proliferation where cells were treated for four days. All the 7 active compounds were tested using the HL-60 cell line that expresses the highest level of Bcl-2 protein among all the cancer cell lines examined.
Cells and Reagents. Human breast cell lines (T47D, MDA-231, MDA-453), and human Leukemia cells HL-60 were obtained from the American Type Culture Collection (ATCC). All tumor cell lines were grown and maintained in RPMI 1640 medium containing 10% FBS, except MDA-MB-231, which used Dulbecco's modified Eagle's medium as basal medium. Cultures were maintained in a humidified incubator at 37° C. and 5% CO2.
Cell viability was determined by the trypan blue assay. […] Trypan blue dye was added 24 hours later and the percentage of viable cells were determined.

A further data set has as its system Bcl-2/Bcl-XL. Conditions: reported by Tzung et al.; read-out: IC50, inhibitor of Bcl-2/Bcl-XL; cited from earlier work.

Consider five compounds from patent publication US7354928B2, “Small molecule inhibitors targeted at Bcl-2” (The Regents of the University of Michigan, priority 2001, dated 2008).

The melting point is the temperature, or range, at which the solid turns liquid.

Where two headings read alike, the source gives them in different places.

T1 sequence (P10415 1-205 limits assumed): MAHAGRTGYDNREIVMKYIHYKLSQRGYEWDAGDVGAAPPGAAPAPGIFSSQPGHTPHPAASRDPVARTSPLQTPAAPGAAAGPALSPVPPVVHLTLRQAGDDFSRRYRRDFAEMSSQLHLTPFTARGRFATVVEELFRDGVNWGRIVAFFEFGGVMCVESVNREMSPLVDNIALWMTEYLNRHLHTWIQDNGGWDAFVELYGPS

For the compound `O=C1c2cc(Br)ccc2-c2ccc3c4ccc5c6c(ccc(c7ccc1c2c73)c64)C(=O)c1cc(Br)ccc1-5` [Compound 5], the solubility result in data set [1] was “Insoluble”; in data set [1] (listed as compound 5), “insoluble”.
Take `COc1ccc2c(c1)CCc1cc(OC)ccc1[N+]([O-])=[N+]2[O-]` [Compound 6a, 2,9-Dimethoxy-11,12-dihydrodibenzo [c,g] [1,2] diazocine-5,6-dioxide]: the melting point was in the range of 136 to 138 °C.
Consider `Nc1nc(-c2ccccc2)nc2c1[n+]([O-])c1ccccc1[n+]2[O-]` [Compound 7], for which, at GST-fused Bcl-2 protein, the IC50 amounted to 1.6 µM.
As to `Brc1cccc[n+]1-c1ccc2cc(-[n+]3ccccc3Br)ccc2c1` [Compound 10], in the data set on HL-60 cells, the IC50 is no less than 50 µM.
antimycin A: in the data set with Bcl-2/Bcl-XL, the IC50 was 2 µM.
